Test results as given in patent US20240299385A1 (ReWind Therapeutics NV, priority 2021, published 2024).

Test system: NMDA receptor
Assay: not given
Settings: selectivity, background statement; cited from earlier work

| SMILES | fold more potent as an NMDA receptor antagonist than as a GPR17 activator |
| --- | --- |
| O=C(O)CCc1c(C(=O)O)[nH]c2cc(Cl)cc(Cl)c12 [MDL29,951, MDL 29,951] | approximately ten |

Target: T1, human GPR17 receptor (Homo sapiens, UniProt Q13304)
T1 construct: host or cells: HEK-293
T1 sequence (Q13304 whole entry): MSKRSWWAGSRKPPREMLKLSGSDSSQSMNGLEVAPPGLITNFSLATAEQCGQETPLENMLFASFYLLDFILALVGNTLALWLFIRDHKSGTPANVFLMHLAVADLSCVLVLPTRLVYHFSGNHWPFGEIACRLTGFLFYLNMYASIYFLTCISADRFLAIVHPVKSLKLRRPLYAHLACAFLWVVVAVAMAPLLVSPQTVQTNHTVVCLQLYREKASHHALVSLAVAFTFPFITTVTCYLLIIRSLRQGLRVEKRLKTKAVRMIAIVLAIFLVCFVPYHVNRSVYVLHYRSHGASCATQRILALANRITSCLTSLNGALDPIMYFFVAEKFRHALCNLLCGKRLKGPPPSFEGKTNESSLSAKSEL
Assay: Calcium mobilization functional assay (Fluo-8, FLIPR TETRA) in HEK-293 hGPR17 (Gα-q assay)
Type: cell-based
Settings: antagonism of MDL29,951 (~EC80) induced Ca2+ signal; cell line (HEK-293 hGPR17 or HEK-293 Suchi5 hGPR17) not given
Summary of the method: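 Fluo-8-loaded HEK-293 hGPR17 cells (60 min dye loading, room temperature) were preincubated with compound for twenty minutes, then challenged with agonist MDL29,951 at ~EC80, 500 nM. Intracellular calcium release via Gα-q was recorded as FLIPR fluorescence for a further 2 minutes; compounds tested in duplicate.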

| IC50 [µM] | SMILES |
| --- | --- |
| < 0.5 | Cc1csc(-c2cc(S(=O)(=O)Nc3cc(F)c(OC(F)F)cc3F)c[nH]2)c1 [Cpd 659, N-[4-(difluoromethoxy)-2,5-difluorophenyl]-5-(4-methylthiophen-2-yl)-1H-pyrrole-3-sulfonamide] |
| < 0.5 | COc1csc(-c2cc(S(=O)(=O)Nc3cc(F)c(OC(F)F)cc3F)c[nH]2)c1 [Cpd 660, N-[4-(difluoromethoxy)-2,5-difluorophenyl]-5-(4-methoxythiophen-2-yl)-1H-pyrrole-3-sulfonamide] |
| < 0.5 | COc1csc(-c2cc(S(=O)(=O)Nc3cc(F)c(C#N)cc3F)c[nH]2)n1 [Cpd 661, N-(4-cyano-2,5-difluorophenyl)-5-(4-methoxy-1,3-thiazol-2-yl)-1H-pyrrole-3-sulfonamide] |
| < 0.5 | N#Cc1ccc(F)c(-c2cc(S(=O)(=O)Nc3nc(F)c(OCCF)cc3F)c[nH]2)c1 [Cpd 662, 5-(5-cyano-2-fluorophenyl)-N-[3,6-difluoro-5-(2-fluoroethoxy)pyridin-2-yl]-1H-pyrrole-3-sulfonamide] |
| 0.5 to 5 | N#Cc1cc(F)c(NS(=O)(=O)c2c[nH]c(-c3cccc4c(C(F)(F)F)coc34)c2)cc1F [Cpd 663, N-(4-cyano-2,5-difluorophenyl)-5-[3-(trifluoromethyl)-1-benzofuran-7-yl]-1H-pyrrole-3-sulfonamide] |
| 0.5 to 5 | O=S(=O)(Nc1cc(F)c(OC(F)F)cc1F)c1c[nH]c(-c2csc(Cl)c2)c1 [Cpd 664, 5-(5-chlorothiophen-3-yl)-N-[4-(difluoromethoxy)-2,5-difluorophenyl]-1H-pyrrole-3-sulfonamide] |
| < 0.5 | O=S(=O)(Nc1nc(F)c(OCCF)cc1F)c1c[nH]c(-c2nccs2)c1 [Cpd 665, N-[3,6-difluoro-5-(2-fluoroethoxy)pyridin-2-yl]-5-(1,3-thiazol-2-yl)-1H-pyrrole-3-sulfonamide] |
| < 0.5 | O=S(=O)(Nc1cc(F)c(OC(F)F)cc1F)c1c[nH]c(-c2cc(Cl)cs2)c1 [Cpd 666, 5-(4-chlorothiophen-2-yl)-N-[4-(difluoromethoxy)-2,5-difluorophenyl]-1H-pyrrole-3-sulfonamide] |
| 5 to 50 | N#Cc1cc(F)c(NS(=O)(=O)c2c[nH]c(-c3ncc(C(F)(F)F)s3)c2)cc1F [Cpd 667, N-(4-cyano-2,5-difluorophenyl)-5-[5-(trifluoromethyl)-1,3-thiazol-2-yl]-1H-pyrrole-3-sulfonamide] |
| 0.5 to 5 | O=S(=O)(Nc1cc(F)c(OC(F)F)cc1F)c1c[nH]c(-c2nc3ccccc3s2)c1 [Cpd 668, 5-(1,3-benzothiazol-2-yl)-N-[4-(difluoromethoxy)-2,5-difluorophenyl]-1H-pyrrole-3-sulfonamide] |
| < 0.5 | O=S(=O)(Nc1cc(F)c(C(F)(F)F)cc1F)c1c[nH]c(-c2ccoc2Cl)c1 [Cpd 669, 5-(2-chlorofuran-3-yl)-N-[2,5-difluoro-4-(trifluoromethyl)phenyl]-1H-pyrrole-3-sulfonamide] |

Further lines, the molecule ahead of its results:

| SMILES | IC50 [µM] |
| --- | --- |
| N#Cc1cc(F)c(NS(=O)(=O)c2c[nH]c(-c3cncs3)c2)cc1F [Cpd 647, N-(4-cyano-2,5-difluorophenyl)-5-(1,3-thiazol-5-yl)-1H-pyrrole-3-sulfonamide] | < 0.5 |
| N#Cc1cc(F)c(NS(=O)(=O)c2c[nH]c(-c3ncc(Cl)s3)c2)cc1F [Cpd 648, 5-(5-chloro-1,3-thiazol-2-yl)-N-(4-cyano-2,5-difluorophenyl)-1H-pyrrole-3-sulfonamide] | < 0.5 |
| Cc1csc(-c2cc(S(=O)(=O)Nc3cc(F)c(C#N)cc3F)c[nH]2)n1 [Cpd 649, N-(4-cyano-2,5-difluorophenyl)-5-(4-methyl-1,3-thiazol-2-yl)-1H-pyrrole-3-sulfonamide] | < 0.5 |
| N#Cc1ccc(F)c(-c2cc(S(=O)(=O)Nc3cc(F)c(OC(F)F)cc3F)c[nH]2)c1 [Cpd 650, 5-(5-cyano-2-fluorophenyl)-N-[4-(difluoromethoxy)-2,5-difluorophenyl]-1H-pyrrole-3-sulfonamide] | < 0.5 |
| N#Cc1cc(F)c(NS(=O)(=O)c2c[nH]c(-c3coc4ccccc34)c2)cc1F [Cpd 651, 5-(1-benzofuran-3-yl)-N-(4-cyano-2,5-difluorophenyl)-1H-pyrrole-3-sulfonamide] | < 0.5 |
| COc1c(F)cccc1-c1cc(S(=O)(=O)Nc2cc(F)c(C#N)cc2F)c[nH]1 [Cpd 652, N-(4-cyano-2,5-difluorophenyl)-5-(3-fluoro-2-methoxyphenyl)-1H-pyrrole-3-sulfonamide] | < 0.5 |
| Cc1occc1-c1cc(S(=O)(=O)Nc2cc(F)c(C(F)(F)F)cc2F)c[nH]1 [Cpd 653, N-[2,5-difluoro-4-(trifluoromethyl)phenyl]-5-(2-methylfuran-3-yl)-1H-pyrrole-3-sulfonamide] | < 0.5 |
| N#Cc1cc(F)c(NS(=O)(=O)c2c[nH]c(-c3cccc(F)c3)c2)cc1F [Cpd 654, N-(4-cyano-2,5-difluorophenyl)-5-(3-fluorophenyl)-1H-pyrrole-3-sulfonamide] | < 0.5 |
| O=S(=O)(Nc1nc(F)c(OCCF)cc1F)c1c[nH]c(-c2cc(Cl)ccc2F)c1 [Cpd 655, 5-(5-chloro-2-fluorophenyl)-N-[3,6-difluoro-5-(2-fluoroethoxy)pyridin-2-yl]-1H-pyrrole-3-sulfonamide] | < 0.5 |
| N#Cc1cc(F)c(NS(=O)(=O)c2c[nH]c(-c3ccns3)c2)cc1F [Cpd 656, N-(4-cyano-2,5-difluorophenyl)-5-(1,2-thiazol-5-yl)-1H-pyrrole-3-sulfonamide] | 0.5 to 5 |
| N#Cc1cc(F)c(NS(=O)(=O)c2c[nH]c(-c3cnsc3)c2)cc1F [Cpd 657, N-(4-cyano-2,5-difluorophenyl)-5-(1,2-thiazol-4-yl)-1H-pyrrole-3-sulfonamide] | 0.5 to 5 |
| N#Cc1cc(F)c(NS(=O)(=O)c2c[nH]c(-c3ncco3)c2)cc1F [Cpd 658, N-(4-cyano-2,5-difluorophenyl)-5-(1,3-oxazol-2-yl)-1H-pyrrole-3-sulfonamide] | 0.5 to 5 |
